How the values were obtained:
[1] = test system: recombinant NL4-3 virus (Renilla luciferase) in MT-2 cells; test: HIV cell culture assay (antiviral activity, luciferase readout); format: cell-based; settings: Renilla, NL43
Procedure: HIV cell culture assay—MT-2 cells, 293T cells and the proviral DNA clone of NL4-3 virus were obtained from the NIH AIDS Research and Reference Reagent Program. MT-2 cells were propagated in RPMI 1640 media supplemented with 10% heat inactivated fetal bovine serum (FBS), […]. The 293T cells were propagated in DMEM media supplemented with 10% heat inactivated FBS, […] penicillin G and […] streptomycin. A recombinant NL40.3 proviral clone, in which a section of the nef gene was replaced with the Renilla luciferase gene, was used to make the reference virus used in these studies. The recombinant virus was prepared through transfection of the recombinant NL4-3 proviral clone into 293T cells using Transit-293 Transfection Reagent from Minis Bio LLC (Madison, Wis.). Supernatent was harvested after 2-3 days and the amount of virus present was titered in MT-2 cells using luciferase enzyme activity as a marker by measuring luciferase enzyme activity. Luciferase was quantitated using the EnduRen Live Cell Substrate from Promega (Madison, Wis.). Antiviral activities of compounds toward the recombinant virus were quantified by measuring luciferase activity in MT-2 cells infected for 4-5 days with the recombinant virus in the presence of serial dilutions of the compound.
The 50% effective concentration (EC50) was calculated by using the exponential form of the median effect equation where (Fa)=1/[1+(ED50/drug conc.)m] (Johnson V A, Byington R T. Infectivity Assay. In Techniques in HIV Research. ed. Aldovini A, Walker B D. 71-76. New York: Stockton Press. 1990). The 50% inhibitory concentration (EC50) was calculated by using the exponential form of the median effect equation where percent inhibition=1/[1+(EC50/drug concentration)m], where m is a parameter that reflects the slope of the concentration-response curve.

[2] = Compound cytotoxicity, XTT-based colorimetric assay; format: cell-based; settings: human; uninfected MT2 cells, day 4, XTT
Procedure: Compound cytotoxicity and the corresponding CC50 values were determined using the same protocol as described in the antiviral assay except that uninfected cells were used. Cytotoxicity was assessed on day 4 in uninfected MT2 cells by using a XTT (2,3-bis[2-Methoxy-4-nitro-5-sulfophenyl]-2H-tetrazolium-5-carboxyanilide inner salt)-based colorimetric assay (Sigma-Aldrich, St Louis, Mo.).

| Compound | EC50 [1] [nM] | CC50 at 4 days [2] [nM] |
| --- | --- | --- |
| Cn1nc(NS(C)(=O)=O)c2c(Cl)ccc(-n3c([C@H](Cc4cc(F)cc(F)c4)NC(=O)Cn4nc(C(F)F)c5c4C(F)(F)[C@@H]4C[C@H]54)nc4cc(-c5nccnc5C5CC5)ccc4c3=O)c21 (atropisomer, axis not shown; (P)) [Example 61, N—((S)-1-((3P)-3-(4-chloro-1-methyl-3-(methylsulfonamido)-1H-indazol-7-yl)-7-(3-cyclopropylpyrazin-2-yl)-4-oxo-3,4-dihydroquinazolin-2-yl)-2-(3,5-difluorophenyl)ethyl)-2-((3bS,4aR)-3-(difluoromethyl)-5,5-difluoro-3b,4,4a,5-tetrahydro-1H-cyclopropa[3,4]cyclopenta[1,2-c]pyrazol-1-yl)acetamide] | 0.16 | > 500 |
| Cn1nc(NS(C)(=O)=O)c2c(Cl)ccc(-n3c([C@H](Cc4cc(F)cc(F)c4)NC(=O)Cn4nc(C(F)F)c5c4C(F)(F)[C@@H]4C[C@H]54)nc4cc(-c5ccccc5C(F)(F)F)ccc4c3=O)c21 (atropisomer, axis not shown; (P)) [Example 24, N—((S)-1-((3P)-3-(4-chloro-1-methyl-3-(methylsulfonamido)-1H-indazol-7-yl)-4-oxo-7-(2-(trifluoromethyl)phenyl)-3,4-dihydroquinazolin-2-yl)-2-(3,5-difluorophenyl)ethyl)-2-((3bS,4aR)-3-(difluoromethyl)-5,5-difluoro-3b,4,4a,5-tetrahydro-1H-cyclopropa[3,4]cyclopenta[1,2-c]pyrazol-1-yl)acetamide] | 0.84 | > 500 |
| CC(C)c1cccc(-c2ccc3c(=O)n(-c4ccc(Cl)c5c(NS(C)(=O)=O)nn(C)c45)c([C@H](Cc4cc(F)cc(F)c4)NC(=O)Cn4nc(C(F)F)c5c4C(F)(F)[C@@H]4C[C@H]54)nc3c2)n1 (atropisomer, axis not shown; (P)) [Example 46, N—((S)-1-((3P)-3-(4-chloro-1-methyl-3-(methylsulfonamido)-1H-indazol-7-yl)-7-(6-isopropylpyridin-2-yl)-4-oxo-3,4-dihydroquinazolin-2-yl)-2-(3,5-difluorophenyl)ethyl)-2-((3bS,4aR)-3-(difluoromethyl)-5,5-difluoro-3b,4,4a,5-tetrahydro-1H-cyclopropa[3,4]cyclopenta[1,2-c]pyrazol-1-yl)acetamide] | 0.23 | > 500 |
| COc1cnc(-c2ccc3c(=O)n(-c4ccc(Cl)c5c(NS(C)(=O)=O)nn(CC(F)F)c45)c([C@H](Cc4cc(F)cc(F)c4)NC(=O)Cn4nc(C(F)F)c5c4C(F)(F)[C@@H]4C[C@H]54)nc3c2)nc1 (atropisomer, axis not shown) [Example 124, N-[(1S)-1-{3-[4-chloro-1-(2,2-difluoroethyl)-3-methanesulfonamido-1H-indazol-7-yl]-7-(5-methoxypyrimidin-2-yl)-4-oxo-3,4-dihydroquinazolin-2-yl}-2-(3,5-difluorophenyl)ethyl]-2-[(2S,4R)-9-(difluoromethyl)-5,5-difluoro-7,8-diazatricyclo[4.3.0.0^2,^4]nona-1(6),8-dien-7-yl]acetamide] | 0.092 | > 500 |
| CCOc1cc(-c2ccc3c(=O)n(-c4ccc(Cl)c5c(NS(C)(=O)=O)nn(C)c45)c([C@H](Cc4cc(F)cc(F)c4)NC(=O)Cn4nc(C(F)F)c5c4C(F)(F)[C@@H]4C[C@H]54)nc3c2)nc(C)n1 (atropisomer, axis not shown; (P)) [Example 69, N—((S)-1-((3P)-3-(4-chloro-1-methyl-3-(methylsulfonamido)-1H-indazol-7-yl)-7-(6-ethoxy-2-methylpyrimidin-4-yl)-4-oxo-3,4-dihydroquinazolin-2-yl)-2-(3,5-difluorophenyl)ethyl)-2-((3bS,4aR)-3-(difluoromethyl)-5,5-difluoro-3b,4,4a,5-tetrahydro-1H-cyclopropa[3,4]cyclopenta[1,2-c]pyrazol-1-yl)acetamide] | 0.43 | > 500 |
| Cc1ncc(F)c(-c2ccc3c(=O)n(-c4ccc(C)c5c(NS(C)(=O)=O)nn(C)c45)c([C@H](Cc4cc(F)cc(F)c4)NC(=O)Cn4nc(C(F)F)c5c4C(F)(F)[C@@H]4C[C@H]54)nc3c2)n1 (atropisomer, axis not shown) [Example 140, 2-[(2S,4R)-9-(difluoromethyl)-5,5-difluoro-7,8-diazatricyclo[4.3.0.0^2,^4]nona-1(6),8-dien-7-yl]-N-[(1S)-2-(3,5-difluorophenyl)-1-[7-(5-fluoro-2-methylpyrimidin-4-yl)-3-(3-methanesulfonamido-1,4-dimethyl-1H-indazol-7-yl)-4-oxo-3,4-dihydroquinazolin-2-yl]ethyl]acetamide] | 0.097 | > 500 |
| COc1nc2ccccc2nc1-c1ccc2c(=O)n(-c3ccc(Cl)c4c(NS(C)(=O)=O)nn(C)c34)c([C@H](Cc3cc(F)cc(F)c3)NC(=O)Cn3nc(C(F)F)c4c3C(F)(F)[C@@H]3C[C@H]43)nc2c1 (atropisomer, axis not shown; (P)) [Example 19, N—((S)-1-((3P)-3-(4-chloro-1-methyl-3-(methylsulfonamido)-1H-indazol-7-yl)-7-(3-methoxyquinoxalin-2-yl)-4-oxo-3,4-dihydroquinazolin-2-yl)-2-(3,5-difluorophenyl)ethyl)-2-((3bS,4aR)-3-(difluoromethyl)-5,5-difluoro-3b,4,4a,5-tetrahydro-1H-cyclopropa[3,4]cyclopenta[1,2-c]pyrazol-1-yl)acetamide] | 5.5 | > 500 |
| Cn1nc(NS(C)(=O)=O)c2c(Cl)ccc(-n3c([C@H](Cc4cc(F)cc(F)c4)NC(=O)Cn4nc(C(F)F)c5c4C(F)(F)[C@@H]4C[C@H]54)nc4cc(-c5ncccc5S(C)(=O)=O)ccc4c3=O)c21 (atropisomer, axis not shown; (P)) [Example 8, N—((S)-1-((3P)-3-(4-chloro-1-methyl-3-(methylsulfonamido)-1H-indazol-7-yl)-7-(3-(methylsulfonyl)pyridin-2-yl)-4-oxo-3,4-dihydroquinazolin-2-yl)-2-(3,5-difluorophenyl)ethyl)-2-((3bS,4aR)-3-(difluoromethyl)-5,5-difluoro-3b,4,4a,5-tetrahydro-1H-cyclopropa[3,4]cyclopenta[1,2-c]pyrazol-1-yl)acetamide] | 0.078 | > 500 |
| CS(=O)(=O)Nc1nn(CC(F)F)c2c(-n3c([C@H](Cc4cc(F)cc(F)c4)NC(=O)Cn4nc(C(F)F)c5c4C(F)(F)[C@@H]4C[C@H]54)nc4cc(-c5cccc(C(F)(F)F)n5)ccc4c3=O)ccc(Cl)c12 [Example 138, N-[(1S)-1-{3-[4-chloro-1-(2,2-difluoroethyl)-3-methanesulfonamido-1H-indazol-7-yl]-4-oxo-7-(trifluoromethyppyridin-2-yl]-3,4-dihydroquinazolin-2-yl}-2-(3,5-difluorophenyl)ethyl]-2-[(2S,4R)-9-(difluoromethyl)-5,5-difluoro-7,8-diazatricyclo[4.3.0.0^2,^4]nona-1(6),8-dien-7-yl]acetamide] | 0.079 | > 500 |

Reference: patent US11541055B2, “Inhibitors of human immunodeficiency virus replication” (ViiV Healthcare UK (No. 5) LIMITED, priority 2018, dated 2023)
